Laboratory results from patent US5463074A, “Imidazolyl or imidazoylalkyl substituted with a four or five membered nitrogen containing heterocyclic ring” (Schering Corporation, priority 1994, dated 1995).
Read-outs that look alike come from different tables or passages of the source.

What was measured:
H3 receptor = biological target: T1, H3 receptor (Cavia porcellus, UniProt Q9JI35); assay: H3 Receptor Binding Assay; set-up: species or system guinea pig; details: for inhibition at 2 µg/mL: read-out: % inhibition (of specific binding of radioactive ligand)
T1 construct: The source of the H3 receptors in this experiment was guinea pig brain; from tissue; host or cells: guinea pig brain membranes
Method: The source of the H3 receptors in this experiment was guinea pig brain. The animals used weighted 400-600 g. The tissue was homogenized using a Polytron in a solution of 50 mM Tris, pH 7.5. The final concentration of tissue in the homogenization buffer was 10% w/v. The homogeneates were centrifuged at 1000×g for 10 min. in order to remove clumps of tissue and debris. The resulting supernatants were then centrifuged at 50,000×g for 20 min. in order to sediment the membranes, which were next washed 3 times in homogenization buffer (50,000×g for 20 min. each). The membranes were frozen and stored at -70° C. until needed.
All compounds to be tested were dissolved in DMSO and then diluted into the binding buffer (50 mM Tris, pH 7.5) such that the final concentration was 2 μg/mL with 0.1% DMSO. Membranes were then added (400 μg of protein) to the reaction tubes. The reaction was started by the addition of 3 nM [^3 H]R-α-methylhistamine (8.8 CVmmol) or [^3 H]-N-methylhistamine (80 Cvmmol) and incubated at 30° for 30 min.

H3 receptors = H3 receptors in rat brain; cited from earlier work
[1] = guinea pig brain membranes, [3H]R-α-methylhistamine or [3H]-N-methylhistamine, 30°, 30 min, read-out: H3 Binding Ki

T1 sequence (Q9JI35 whole entry): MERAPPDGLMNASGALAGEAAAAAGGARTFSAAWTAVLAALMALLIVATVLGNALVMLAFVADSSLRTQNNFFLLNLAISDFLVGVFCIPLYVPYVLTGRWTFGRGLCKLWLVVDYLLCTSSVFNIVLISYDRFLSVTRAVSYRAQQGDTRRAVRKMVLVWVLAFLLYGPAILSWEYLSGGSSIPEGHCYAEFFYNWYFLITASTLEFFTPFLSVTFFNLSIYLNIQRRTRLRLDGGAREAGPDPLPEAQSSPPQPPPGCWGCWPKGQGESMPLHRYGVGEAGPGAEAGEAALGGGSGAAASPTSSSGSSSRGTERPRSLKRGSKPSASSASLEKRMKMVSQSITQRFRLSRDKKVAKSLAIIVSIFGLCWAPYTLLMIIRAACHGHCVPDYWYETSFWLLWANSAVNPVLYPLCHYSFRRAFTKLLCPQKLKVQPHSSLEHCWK

| SMILES | Ki (H3 receptor; [1]) [nM] | further results |
| --- | --- | --- |
| CCCCC[C@@H]1CNC[C@H]1c1c[nH]cn1 (relative stereo) | 450 |  |
| C[C@@H]1C[C@@H](c2c[nH]cn2)CN1 (relative stereo) | 76 |  |
| c1nc(CC2CCCN2)c[nH]1 (stereo not shown) | 110 |  |
| CC[C@@H]1CNC[C@H]1c1c[nH]cn1 (relative stereo) | 150 |  |
| c1nc(C2CCNC2)c[nH]1 (stereo not shown) | 3 |  |
| C[C@@H]1NCC[C@H]1c1c[nH]cn1 (relative stereo) | 6 |  |
| NCCc1c[nH]cn1 [histamine] |  | maximum inhibition of release (H3 receptors): approximately 60% |
| c1ccc(CC[C@@H]2NCC[C@@H]2c2c[nH]cn2)cc1 (relative stereo) | 600 |  |
| CCCCC[C@@H]1CNC[C@@H]1c1c[nH]cn1 (relative stereo) |  | Ki (H3 receptor): 77 nM |
| c1ccc(C[C@@H]2NCC[C@H]2c2c[nH]cn2)cc1 (relative stereo) |  | inhibition at 2 µg/mL (H3 receptor): 7% |
| CC1(C)CNCC1c1c[nH]cn1 (stereo not shown) |  | inhibition at 2 µg/mL (H3 receptor; at a concentration of 2 μg/mL, guinea pig brain membranes): 68% |
| C[C@@H]1NC[C@H]1c1c[nH]cn1 (relative stereo) | 7 |  |
| CN1CCC(Cc2c[nH]cn2)C1 (stereo not shown) | 3 |  |
| CC1(c2c[nH]cn2)CCNC1 (stereo not shown) | 170 |  |
| C[C@@H]1CNC[C@H]1c1cnc[nH]1 (relative stereo) | 8 |  |
| CC1(C)NCCC1c1c[nH]cn1 (stereo not shown) | 66 |  |
